Test results reported in patent US20250360167A1 (Keryx Biopharmaceuticals, Inc., priority 2013, published 2025).

Key:
Format in all cases: in vivo, human
[1] = Phase 3 trial (Example 1): cumulative EPO (ESA) administered to Week 52
Text: The cumulative EPO (ESA) administrated from randomization to Week 52 will be compared between treatment groups. This variable will be similarly analyzed as the primary efficacy variable using ANCOVA method. The two-sided 95% confidence intervals of treatment differences for all above comparisons will be presented.

[2] = system: serum bicarbonate; assay: Phase 3 trial (Example 1): serum bicarbonate concentration; details: for Serum Bicarbonate Concentration, Mean / Serum Bicarbonate Concentration, Median / Serum Bicarbonate Concentration, LS Mean / Serum Bicarbonate Concentration, Change from Baseline, Mean / Serum Bicarbonate Concentration, Change from Baseline, Median / Serum Bicarbonate Concentration, Treatment Differences, LS Mean (KRX-0502) − LS Mean (control), (SE): Table 18; for Serum Bicarbonate Concentration, LS Mean: ANCOVA
Procedure: Serum bicarbonate was performed at a local laboratory and was done at the Randomization Visit (Visit 4); at Visits 11 (Week 12), 14 (Week 24), 17 (Week 36), 20 (Week 48) and 21 (Week 52) during the Safety Assessment Period; and at Visit 25 (Week 56) of the Efficacy Assessment Period.
• 1. Change in serum calcium concentration at Weeks 12, 24, 36, 48, and 52 as compared to baseline (Visit 4). This variable will be analyzed using LOCF methodology. ANCOVA will be employed. The model will include treatment (fixed effect), and baseline (covariate). • 2. Change in ferritin, and TSAT at Weeks 12, 24, 36 and 48 as compared to baseline (Visit 4). This variable will be analyzed using LOCF methodology. ANCOVA will be employed. The model will include treatment (fixed effect), and baseline (covariate). • 3. Change in serum iron and TIBC at Weeks 12, 24, 36, 48, and 52 as compared to baseline (Visit 4). This variable will be analyzed using LOCF methodology. ANCOVA will be employed. The model will include treatment (fixed effect), and baseline (covariate). • 4. Change in Ca x P product at Weeks 12, 24, 36, 48, and 52 as compared to baseline (Visit 4). This variable will be analyzed using LOCF methodology. ANCOVA will be employed. The model will include treatment (fixed effect), and baseline (covariate). • 5. Change in iPTH at Weeks 12, 36, 52, and 56 as compared to baseline (Visit 4). This variable will be analyzed using LOCF methodology. ANCOVA will be employed. The model will include treatment (fixed effect), and baseline (covariate). • 6. Change in serum […], vitamin A, vitamin B-12, vitamin E, vitamin K and folic acid at Weeks 12, 36, and 52 as compared to baseline (Visit 4). This variable will be analyzed using LOCF methodology. ANCOVA will be employed. The model will include treatment (fixed effect), and baseline (covariate). • 7. Change in serum bicarbonate concentration at Weeks 12, 36, and 52 as compared to baseline (Visit 4). This variable will be analyzed using LOCF methodology. ANCOVA will be employed. The model will include treatment (fixed effect), and baseline (covariate). • 8. Change in IV iron intake at Weeks 12, 24, 36, 48, and 52 as compared to baseline (Visit 4). This variable will be analyzed using LOCF methodology. ANCOVA will be employed. The model will include treatment (fixed effect), and baseline (covariate). • 9. Change in the use of EPO (ESA) administered at Weeks 12, 24, 36, 48, and 52 as compared to baseline (Visit 4). This variable will be analyzed using LOCF methodology. ANCOVA will be employed. The model will include treatment (fixed effect), and baseline (covariate). • 10. Change in the use of Vitamin D supplementation (and its analogs) and Sensipar (cinacalcet) at Weeks 12, 24, 36, 48, and 52 as compared to baseline (Visit 4). This variable will be analyzed using LOCF methodology. ANCOVA will be employed. The model will include treatment (fixed effect), and baseline (covariate). • 11. Change in LDL, HDL, and triglycerides at Weeks 12, 36, and 52 as compared to baseline (Visit 4). This variable will be analyzed using LOCF methodology. ANCOVA will be employed. The model will include treatment (fixed effect), and baseline (covariate).

[3] = system: intact fibroblast growth factor 23 (FGF23); assay: Phase 2 trial (Example 2): intact FGF-23; details: n = 63
Procedure: Change in calcium x phosphorus product, serum calcium, estimated glomerular filtration rate (eGFR), urinary phosphorus, bicarbonate levels, serum iron, UIBC, TIBC, iPTH, and intact fibroblast growth factor 23 (FGF23) from baseline (Visit 4, Week 0) to the end of treatment (Visit 11, Week 12) are also assessed as secondary endpoints.
(§1) The key secondary endpoints of the study were the mean changes in ferritin, hemoglobin and FGF-23 from baseline to the end of the 12-week treatment period versus placebo in the ITT group.

[4] = Phase 2 trial (Example 2): treatment failures; details: two consecutive visits; 12-week treatment period
Procedure: If a subject has a serum phosphorus ≥6.0 mg/dL for at least two visits in a row during the 12-week treatment period, the subject is considered a treatment failure, stops study drug and exits the study.
The use of IV iron and erythropoietin stimulating agents (ESAs) is not permitted during the two-week washout and 12-week treatment periods. If a subject's hemoglobin level (Hgb) is <9.0 g/dL during the two-week washout, the subject is a screen failure. If a subject's Hgb is <9.0 g/dL for at least two visits in a row during the 12-week treatment period, the subject is considered a treatment failure, stops study drug and exits the study.
Patients were discontinued from the study if they had hemoglobin measurements <9.0 g/dL on two consecutive visits or serum phosphorus measurements ≥6.0 mg/dL on two consecutive visits following randomization.

[5] = system: ferritin; assay: Phase 2 trial (Example 2): ferritin
Text: Change in serum phosphorus, ferritin and TSAT levels from baseline to end of treatment after 12 weeks are the primary endpoints.
as §1

[6] = Day 0 Baseline, Safety Assessment Period

Substance: iron (+3), x (1, 2, 3-propanetricarboxylic acid, 2-hydroxy-), y (H2O) [KRX-0502]
- Average Daily EPO (ESA) intake based on the Cumulative EPO (ESA) intake to week 52 (Visit 4-21), Median ([1]; Safety Assessment Period, Full Analysis Population, Method 1 to handle overlapping doses): 724.24
- Average Daily EPO (ESA) intake based on the Cumulative EPO (ESA) intake to week 52 (Visit 4-21), Mean ([1]; Safety Assessment Period, Full Analysis Population, Method 1 to handle overlapping doses, SD in the next cell): 1077.67
- decrease in median ESA intake ([1]; administered over a period of 52 weeks, stated as embodiment): 27.1%
- Serum Bicarbonate Concentration, Mean [2, 6]: 23.92
- Serum Bicarbonate Concentration, Median [2, 6]: 24.00
- Serum Bicarbonate Concentration, LS Mean ([2]; Week 12): 25.60
- Serum Bicarbonate Concentration, Change from Baseline, Mean ([2]; Week 12): 1.57
- Serum Bicarbonate Concentration, Change from Baseline, Median ([2]; Week 12): 1.05
- Serum Bicarbonate Concentration, Mean ([2]; Week 12): 25.63
- Serum Bicarbonate Concentration, Median ([2]; Week 12): 25.00
- Serum Bicarbonate Concentration, Treatment Differences, LS Mean (KRX-0502) − LS Mean (control), (SE) ([2]; Week 12): −0.72 (0.37)
- Serum Bicarbonate Concentration, LS Mean ([2]; Week 24): 25.35
- Serum Bicarbonate Concentration, Change from Baseline, Mean ([2]; Week 24): 1.48
- Serum Bicarbonate Concentration, Change from Baseline, Median ([2]; Week 24): 1.00
- Serum Bicarbonate Concentration, Mean ([2]; Week 24): 25.39
- Serum Bicarbonate Concentration, Median ([2]; Week 24): 25.45
- Serum Bicarbonate Concentration, Treatment Differences, LS Mean (KRX-0502) − LS Mean (control), (SE) ([2]; Week 24): −0.39 (0.38)
- Serum Bicarbonate Concentration, LS Mean ([2]; Week 36): 25.22
- Serum Bicarbonate Concentration, Change from Baseline, Mean ([2]; Week 36): 1.36
- Serum Bicarbonate Concentration, Change from Baseline, Median ([2]; Week 36): 1.00
- Serum Bicarbonate Concentration, Mean ([2]; Week 36): 25.27
- Serum Bicarbonate Concentration, Median ([2]; Week 36): 25.00
- Serum Bicarbonate Concentration, Treatment Differences, LS Mean (KRX-0502) − LS Mean (control), (SE) ([2]; Week 36): −0.15 (0.34)
- Serum Bicarbonate Concentration, LS Mean ([2]; Week 48): 24.78
- Serum Bicarbonate Concentration, Change from Baseline, Mean ([2]; Week 48): 0.91
- Serum Bicarbonate Concentration, Change from Baseline, Median ([2]; Week 48): 1.00
- Serum Bicarbonate Concentration, Mean ([2]; Week 48): 24.81
- Serum Bicarbonate Concentration, Median ([2]; Week 48): 25.00
- Serum Bicarbonate Concentration, Treatment Differences, LS Mean (KRX-0502) − LS Mean (control), (SE) ([2]; Week 48): −0.52 (0.36)
- Serum Bicarbonate Concentration, LS Mean ([2]; Week 52): 24.60
- Serum Bicarbonate Concentration, Change from Baseline, Mean ([2]; Week 52): 0.71
- Serum Bicarbonate Concentration, Change from Baseline, Median ([2]; Week 52): 1.00
- Serum Bicarbonate Concentration, Mean ([2]; Week 52): 24.63
- Serum Bicarbonate Concentration, Median ([2]; Week 52): 25.00
- Serum Bicarbonate Concentration, Treatment Differences, LS Mean (KRX-0502) − LS Mean (control), (SE) ([2]; Week 52): −0.70 (0.44)
- mean increase in serum bicarbonate concentration ([2]; administered for a period of 52 weeks, stated as embodiment): 0.71 mEq/L
- Mean Intact FGF-23, Baseline ([3]; Baseline): 319 pg/mL
- Mean Intact FGF-23, End of Treatment (Week 12) ([3]; Week 12, last observation carried forward): 200 pg/mL
- Treatment Failures (n), Hemoglobin <9.0 g/dL [4]: 1
- Treatment Failures (n), Serum Phosphorus ≥6.0 mg/dL [4]: 0
- Mean Ferritin, Baseline ([5]; Baseline, ITT group, n = 72): 116 ng/mL
- Mean Ferritin, End of Treatment (Week 12) ([5]; Week 12, last observation carried forward, ITT group, n = 72): 189 ng/mL
- ending ferritin level at Visit 11 (Week 12) ([5]; sample size assumption): approximately 300 ng/mL
